{"source": "patent US20060121449A1", "about": "“Method for selection of compounds which inhibit clonal cell growth and use thereof” (priority 2002, published 2006)", "key": {"[1]": {"system": "polyoma virus transformed BHK21/c13 cells, line S100T1", "test": "Collocation inhibition test: clonal growth in sparsely and densely seeded areas of a cell density gradient of S100T1 cells in soft agar (Exp 13, 17, 19-26);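 also: soft agar cultures in 24-well plates with a cell density gradient in the top layer, compounds applied from DMSO stocks, clonal growth scored in sparse versus dense areas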;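 as to Clonal growth, H high density area of cell gradient, High: grades rise with clonal growth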;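 as to Clonal growth, H high density area of cell gradient, Low: grades rise with clonal growth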;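 as to Clonal growth, H high density area of cell gradient, Medium: grades rise with clonal growth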;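 as to Clonal growth, L low density area of cell gradient, High: grades rise with clonal growth and minus or plus-minus means none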;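 as to Clonal growth, L low density area of cell gradient, Low: grades rise with clonal growth and minus or plus-minus means none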;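 as to Clonal growth, L low density area of cell gradient, Medium: grades rise with clonal growth and minus or plus-minus means none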", "conditions": "for Significance: Exp 17 day 14", "protocol": "The cells should be grown in a top agar layer to avoid growth on the bottom surface. […] Both densely seeded and sparsely seeded areas were photographed.\nCells: The polyoma virus transformed offspring of BHK21/c13, S100T1, was grown on 75 cm^2 flasks on Eagles medium with 5% foetal calf serum. […] Foetal calf serum (0.7 ml) was added to each harvest. After low speed centrifugation the supernatant was discarded and the cells were dispersed in 1 ml FBS.\nThe concentration of ultra low gelling temperature agarose (Sigma) of the top agar layer with cells was also 0.8%. […] The addition of cells was performed at the same side of the wells in order to create similar cell density gradients. Finally the top layer agar was consolidated in the refrigerator.\nAfter that it was incubated at 37 degrees in 5% CO2 atmosphere.\nAgar cultures were prepared in Falcon 24 well tissue culture plate. Each well contained two agar layers of 0.3 ml.\nAgar cultures were prepared in wells of Falcon 24 well tissue culture plate. Each contained two agar layers of 0.3 ml. […] The medium contained Eagles MEM and 10% foetal bovine serum (FBS).\nThe compounds were first solved in DMSO in 20 mM concentration and then diluted in medium. The top layer needed 60-90 minutes in the refrigerator for solidification before incubation in 37° C. with 5% CO2 atmosphere.\nIn this experiment the inhibitor was added to the bottom layer in order to get an easier way for making the cell density gradient. One side of the Falcon 24 well plate was elevated 12 degrees in the refrigerator for 60-90 minutes to solidify the bottom layer in an oblique position When then solidifying the cell containing top soft agar layer in horizontal position, the cell gradient constantly became good across the well. […] Another 90 minutes were spent in the refrigerator to consolidate the soft agar layer with cells in a horizontal position. Both layers contained 0.8% agarose, Eagles MEM and 10% FBS.\nTilting the plate 12 degrees when solidifying the bottom layer with the drug and casting the top layer with cells horizontally made a stable cell gradient.\nThe indicated compounds were added to soft agar cultures of the polyoma virus transformed cell line S100T1 of BHK21/c13 cells (Table 1). Agar cultures were prepared in wells of a Falcon 24 well tissue culture plate. The wells contained two agar layers of 0.3 ml. […] The bottom medium was identical, but without cells.\nThe compounds were first solved in DMSO in 20 mM concentration and then diluted in bottom medium. The agar layers needed 60-90 minutes in the refrigerator for consolidation before incubation at 37° C. in 5% CO2 atmosphere."}, "[2]": {"system": "polyoma virus transformed BHK21/c13 cells, clone S100T1", "test": "Clonal test: clonal growth of S100T1 cells in soft agar (Exp 2, 4, 6, 15, 16)", "format": "cell-based, hamster"}, "[3]": {"conditions": "preliminary results, Exp 13-18, 21-26, high concentration"}, "[4]": {"conditions": "preliminary results, Exp 13-18, 21-26, low concentration"}, "[5]": {"conditions": "preliminary results, Exp 13-18, 21-26, medium concentration"}, "[6]": {"conditions": "Exp 15, 32000 S100T1 cells/well"}}, "note": "Entries after “also recorded” stand apart in the source; their conditions may differ."}
{"smiles": "COc1cc([C@@H]2c3cc4c(cc3[C@H](O)[C@H]3COC(=O)[C@H]23)OCO4)cc(OC)c1OC", "note": "[Podophyllotoxin]", "values": [{"measurement": "Effect on growth in high- and low-density areas", "setting": "[1]; Exp 17, 144000 S100T1 cells/well", "value": "growth inhibition of both high and low-density areas; also recorded: significant inhibition of growth in crowded areas"}, {"measurement": "Clonal growth, results read on the day 14", "setting": "[1]; Exp 17, a: close to densely seeded cell areas, High: Colchicine 1, Podophyllotoxin 3, Etoposide 200, 4-OH—OPB 6.7 μM in wells, DMSO 29.2 μl", "value": "(+)"}, {"measurement": "Clonal growth, results read on the day 14", "setting": "[1]; Exp 17, a: close to densely seeded cell areas, Low: Colchicine 0.1, Podophyllotoxin 0.3, Etoposide 20, 4-OH—OPB 0.67 μM in wells, DMSO 1.16 μl", "value": "(+"}, {"measurement": "Clonal growth, results read on the day 14", "setting": "[1]; Exp 17, a: close to densely seeded cell areas, Medium: Colchicine 0.3, Podophyllotoxin 0.9, Etoposide 60, 4-OH—OPB 2 μM in wells, DMSO 6.8 μl", "value": "(+"}, {"measurement": "Clonal growth, results read on the day 14", "setting": "[1]; Exp 17, b: sparsely seeded areas in the same agar culture, High: Colchicine 1, Podophyllotoxin 3, Etoposide 200, 4-OH—OPB 6.7 μM in wells, DMSO 29.2 μl", "value": "(+)"}, {"measurement": "Clonal growth, results read on the day 14", "setting": "[1]; Exp 17, b: sparsely seeded areas in the same agar culture, Low: Colchicine 0.1, Podophyllotoxin 0.3, Etoposide 20, 4-OH—OPB 0.67 μM in wells, DMSO 1.16 μl", "value": "+"}, {"measurement": "Clonal growth, results read on the day 14", "setting": "[1]; Exp 17, b: sparsely seeded areas in the same agar culture, Medium: Colchicine 0.3, Podophyllotoxin 0.9, Etoposide 60, 4-OH—OPB 2 μM in wells, DMSO 6.8 μl", "value": "+"}, {"measurement": "Clones in sparsely seeded locations of the agar", "setting": "[1]; Exp 17, compared with 4-OH-OPB", "value": "allow the growth of a few small clones in sparsely seeded locations of the agar; also recorded: to allow the growth of a few small clones in sparsely"}, {"measurement": "Significance", "setting": "[1]; a: close to densely seeded cell areas, High: Colchicine 1, Podophyllotoxin 3, Etoposide 200, 4-OH—OPB 6.7 μM in wells, DMSO 29.2 μl", "value": "Possible"}, {"measurement": "Significance", "setting": "[1]; a: close to densely seeded cell areas, Low: Colchicine 0.1, Podophyllotoxin 0.3, Etoposide 20, 4-OH—OPB 0.67 μM in wells, DMSO 1.16 μl", "value": "Doubtful"}, {"measurement": "Significance", "setting": "[1]; a: close to densely seeded cell areas, Medium: Colchicine 0.3, Podophyllotoxin 0.9, Etoposide 60, 4-OH—OPB 2 μM in wells, DMSO 6.8 μl", "value": "Doubtful"}, {"measurement": "Significance", "setting": "[1]; b: sparsely seeded areas, High: Colchicine 1, Podophyllotoxin 3, Etoposide 200, 4-OH—OPB 6.7 μM in wells, DMSO 29.2 μl", "value": "Possible"}, {"measurement": "Significance", "setting": "[1]; b: sparsely seeded areas, Low: Colchicine 0.1, Podophyllotoxin 0.3, Etoposide 20, 4-OH—OPB 0.67 μM in wells, DMSO 1.16 μl", "value": "No"}, {"measurement": "Significance", "setting": "[1]; b: sparsely seeded areas, Medium: Colchicine 0.3, Podophyllotoxin 0.9, Etoposide 60, 4-OH—OPB 2 μM in wells, DMSO 6.8 μl", "value": "No"}, {"measurement": "Control of metastatic cells leaving tumour", "setting": "[1]; ability of cells to leave a tumour, grow and infiltrate locally or grow in sparsely seeded areas, concluded from Exp 17", "value": "probably not"}, {"measurement": "Clonal growth, H high density area of cell gradient, High", "setting": "[1]; [3]", "value": "(+)"}, {"measurement": "Clonal growth, L low density area of cell gradient, High", "setting": "[1]; [3]", "value": "(+)"}, {"measurement": "Clonal growth, H high density area of cell gradient, Low", "setting": "[1]; [4]", "value": "(+"}, {"measurement": "Clonal growth, L low density area of cell gradient, Low", "setting": "[1]; [4]", "value": "+"}, {"measurement": "Clonal growth, H high density area of cell gradient, Medium", "setting": "[1]; [5]", "value": "(+"}, {"measurement": "Clonal growth, L low density area of cell gradient, Medium", "setting": "[1]; [5]", "value": "+"}, {"measurement": "Effect on cell cloning in soft agar", "setting": "[1]; preliminary results, in words", "value": "cytotoxic"}, {"measurement": "Control of settlement of metastatic cells", "setting": "[1]; single cells or very few cells spread to distant sites, concluded from Exp 17", "value": "partly"}, {"measurement": "Toxicity for body or dense cell populations", "setting": "[1]; supposed main advantages or disadvantages if used in cancer treatment, concluded from Exp 17", "value": "yes"}, {"measurement": "Tolerating long duration of treatment", "setting": "[1]; supposed, if used in cancer treatment", "value": "no"}, {"measurement": "Effect on clonal growth at 0.03 μM", "setting": "[2]; [6]", "value": "no significant inhibition"}, {"measurement": "Effect on clonal growth at 0.3 μM", "setting": "[2]; [6]", "value": "inhibited significantly"}, {"measurement": "Concentration inhibiting clones significantly", "setting": "[2]; Exp 16", "value": "More than 0.065 μM Podophyllotoxin inhibited clones"}, {"measurement": "Colony inhibiting activity for dosage within a range that might be therapeutic", "setting": "[2]; Exp 16, about 40000 S100T1 cells/well", "value": "the same activity possibly existed"}, {"measurement": "Significance", "setting": "[2]; Exp 16 day 14, Podophyllotoxin No 5 (lot 12K1562, solved in DMSO 8 days beforehand, stored frozen), 0.3 μM", "value": "probable"}, {"measurement": "Growth", "setting": "[2]; Exp 16 day 14, Podophyllotoxin No 5 (lot 12K1562, solved in DMSO 8 days beforehand, stored frozen), 0.3 μM in wells", "value": "(+))"}, {"measurement": "Growth", "setting": "[2]; Exp 16 day 14, Podophyllotoxin No 5 (lot 12K1562, solved in DMSO 8 days beforehand, stored frozen), 3 μM in wells", "value": "(+))"}, {"measurement": "Significance", "setting": "[2]; Exp 16 day 14, Podophyllotoxin No 5 (lot 12K1562, solved in DMSO 8 days beforehand, stored frozen), 3 μM, ” = as line above", "value": "” and probable and prob-"}, {"measurement": "Significance", "setting": "[2]; Exp 16 day 14, Podophyllotoxin No 6 (lot 12K1562, solved in DMSO the same day), 0.03 μM", "value": "no"}, {"measurement": "Significance", "setting": "[2]; Exp 16 day 14, Podophyllotoxin No 6 (lot 12K1562, solved in DMSO the same day), 0.065 μM", "value": "possible"}, {"measurement": "Growth", "setting": "[2]; Exp 16 day 14, Podophyllotoxin No 6 (lot 12K1562, solved in DMSO the same day), 0.065 μM in wells", "value": "(+)"}, {"measurement": "Significance", "setting": "[2]; Exp 16 day 14, Podophyllotoxin No 7 (lot 12K1562, solved in DMSO the same day), 0.139 μM", "value": "probable"}, {"measurement": "Growth", "setting": "[2]; Exp 16 day 14, Podophyllotoxin No 7 (lot 12K1562, solved in DMSO the same day), 0.139 μM in wells", "value": "(+))"}, {"measurement": "Growth", "setting": "[2]; Exp 16 day 14, Podophyllotoxin No 7 (lot 12K1562, solved in DMSO the same day), 0.3 μM in wells", "value": "(+)"}, {"measurement": "Significance", "setting": "[2]; Exp 16 day 14, Podophyllotoxin No 7 (lot 12K1562, solved in DMSO the same day), 0.3 μM, ” = as line above", "value": "” and possible"}, {"measurement": "Significance", "setting": "[2]; Exp 16 day 21, Podophyllotoxin No 5 (lot 12K1562, solved in DMSO 8 days beforehand, stored frozen), 0.3 μM", "value": "doubtful"}, {"measurement": "Growth", "setting": "[2]; Exp 16 day 21, Podophyllotoxin No 5 (lot 12K1562, solved in DMSO 8 days beforehand, stored frozen), 0.3 μM in wells", "value": "(+"}, {"measurement": "Significance", "setting": "[2]; Exp 16 day 21, Podophyllotoxin No 5 (lot 12K1562, solved in DMSO 8 days beforehand, stored frozen), 3 μM", "value": "probable"}, {"measurement": "Growth", "setting": "[2]; Exp 16 day 21, Podophyllotoxin No 5 (lot 12K1562, solved in DMSO 8 days beforehand, stored frozen), 3 μM in wells", "value": "(+))"}, {"measurement": "Significance", "setting": "[2]; Exp 16 day 21, Podophyllotoxin No 6 (lot 12K1562, solved in DMSO the same day), 0.03 μM", "value": "no"}, {"measurement": "Growth", "setting": "[2]; Exp 16 day 21, Podophyllotoxin No 6 (lot 12K1562, solved in DMSO the same day), 0.03 μM in wells", "value": "++"}, {"measurement": "Significance", "setting": "[2]; Exp 16 day 21, Podophyllotoxin No 6 (lot 12K1562, solved in DMSO the same day), 0.065 μM", "value": "doubtful"}, {"measurement": "Growth", "setting": "[2]; Exp 16 day 21, Podophyllotoxin No 6 (lot 12K1562, solved in DMSO the same day), 0.065 μM in wells", "value": "(+"}, {"measurement": "Significance", "setting": "[2]; Exp 16 day 21, Podophyllotoxin No 7 (lot 12K1562, solved in DMSO the same day), 0.139 μM", "value": "doubtful"}, {"measurement": "Growth", "setting": "[2]; Exp 16 day 21, Podophyllotoxin No 7 (lot 12K1562, solved in DMSO the same day), 0.139 μM in wells", "value": "(+"}, {"measurement": "Significance", "setting": "[2]; Exp 16 day 21, Podophyllotoxin No 7 (lot 12K1562, solved in DMSO the same day), 0.3 μM", "value": "possible"}, {"measurement": "Growth", "setting": "[2]; Exp 16 day 21, Podophyllotoxin No 7 (lot 12K1562, solved in DMSO the same day), 0.3 μM in wells", "value": "(+)"}]}
